Calls of active or inactive are those of the source. The calls are words filed in the database; no cut-off is given here.
System: MDA-MB-231
Conditions: Homo sapiens, 10 uM
Description: Inhibition of cell invasion of human MDA-MB-231 cells at 10 uM incubated for 96 hrs by Matrigel based assay

Row | SMILES | inhibition
1 | O=C1C[C@@H](c2ccc(O)c(O)c2)Oc2cc(O[C@@H]3O[C@H](CO)[C@@H](O)[C@H](O)[C@H]3O)cc(O)c21 | Active
2 | Cc1c(O)cc2c(c1O)C(=O)[C@H](O)[C@@H](c1ccc(O)c(O)c1)O2 | Active
3 | COc1cc(O)cc(O)c1C(=O)c1ccc(O)c(O)c1 | Active
4 | C/C(=C\CO[C@@H]1O[C@H](CO)[C@@H](O)[C@H](O)[C@H]1O)C(O)CCC(C)(C)O (stereo not given in full) | Active
5 | COc1cc(C2c3c(cc(OC)c(O)c3OC)CC(CO)C2COC2OCC(O)C(O)C2O)cc(OC)c1O (stereo not given) | Active
